Data published in ChEMBL document CHEMBL1133493, “N-acylated alpha-(3-pyridylmethyl)-beta-aminotetralin antagoinists of the human neuropeptide Y Y5 receptor” (Bioorg Med Chem Lett, 2000).
pIC50: −log10 of the molar value.

Experiments:
[1] = biological target: T1, Neuropeptide Y receptor type 5 (Homo sapiens, UniProt Q15761); assay: Inhibition of binding of radioligand [125I]PYY to the human Neuropeptide Y receptor type 5, using a stably transfected HEK293 cell line; format: cell-based
T1 sequence (Q15761 whole entry): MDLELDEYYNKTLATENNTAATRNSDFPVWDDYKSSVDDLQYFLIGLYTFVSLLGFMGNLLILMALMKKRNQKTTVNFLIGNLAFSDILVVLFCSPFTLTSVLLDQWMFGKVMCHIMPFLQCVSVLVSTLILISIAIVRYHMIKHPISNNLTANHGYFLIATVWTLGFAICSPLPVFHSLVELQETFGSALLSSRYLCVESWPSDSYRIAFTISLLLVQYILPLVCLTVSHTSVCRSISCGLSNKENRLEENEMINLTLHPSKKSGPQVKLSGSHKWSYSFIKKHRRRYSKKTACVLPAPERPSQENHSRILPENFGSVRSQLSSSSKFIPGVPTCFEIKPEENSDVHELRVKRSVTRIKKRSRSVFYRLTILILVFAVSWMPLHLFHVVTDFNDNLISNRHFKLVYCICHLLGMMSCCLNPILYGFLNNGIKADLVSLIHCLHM

[2] = biological target: T2, Neuropeptide Y receptor type 5 (Homo sapiens) (UniProt Q15761); assay: Antagonist potency by inhibition of peptide YY (PYY)-induced incorporation of [35S]GTP-gamma-S into membranes prepared from NPY5 receptor expressing cells, in the presence of 300 nM PYY; format: functional
T2 sequence (whole entry): T1 sequence (Q15761 whole entry)

| pIC50 [1] | Kb [2] [nM] | SMILES |
| --- | --- | --- |
| 7.41 | – | O=C(NC[C@H]1CC[C@H](C(=O)NC2CCc3cc(F)ccc3C2Cc2cccnc2)CC1)c1ccccc1 (stereo partly specified) |
| 7.44 | – | O=C(Cc1ccccc1)NC1CCN(CC(=O)NC2CCc3cc(F)ccc3C2Cc2cccnc2)CC1 (stereo unspecified) |
| 6.85 | – | CC(C)(C)NC(=O)NC1CCN(CC(=O)NC2CCc3cc(F)ccc3C2Cc2cccnc2)CC1 (stereo unspecified) |
| 8.22 | 21 | O=C(CN1CCC(n2c(O)nc3ccccc32)CC1)NC1CCc2cc(O)ccc2C1Cc1cccnc1 (stereo unspecified) |
| 6.77 | – | O=C(NC[C@H]1CC[C@H](C(=O)NC2CCc3cc(F)ccc3C2Cc2cccnc2)CC1)Nc1ccccc1 (stereo partly specified) |
| 6.63 | – | O=C(CN1CCC(NC(=O)Nc2ccccc2)CC1)NC1CCc2cc(F)ccc2C1Cc1cccnc1 (stereo unspecified) |
| 7.66 | – | O=C(CN1CCC(n2c(=O)[nH]c3ccccc32)CC1)NC1CCc2ccccc2C1Cc1cccnc1 (stereo unspecified) |
| 7.60 | 21 | O=C(CN1CCC(n2c(O)nc3ccccc32)CC1)NC1CCc2cc(F)ccc2C1Cc1cccnc1 (stereo unspecified) |
| 7.43 | – | CC(C)(C)OC(=O)NC1CCN(CC(=O)NC2CCc3cc(F)ccc3C2Cc2cccnc2)CC1 (stereo unspecified) |
| 7.12 | – | COc1ccc2c(c1)CCC(NC(=O)CN1CCC(n3c(=O)[nH]c4ccccc43)CC1)C2Cc1cccnc1 (stereo unspecified) |
| 7.55 | – | O=C(CN1CCC(NC(=O)c2ccccc2)CC1)NC1CCc2cc(F)ccc2C1Cc1cccnc1 (stereo unspecified) |
| 7.35 | – | CC(C)(C)OC(=O)NC1CCN(CC(=O)NC2CCc3cc(F)ccc3C2Cc2cccnc2)C1 (stereo unspecified) |
| 7.59 | – | O=C(CN1CC[C@H](NC(=O)c2ccccc2)C1)NC1CCc2cc(F)ccc2C1Cc1cccnc1 (stereo partly specified) |
| 7.77 | – | CC(C)(C)OC(=O)N[C@H]1CCN(CC(=O)NC2CCc3cc(F)ccc3C2Cc2cccnc2)C1 (stereo partly specified) |
| 6.94 | – | O=C(Cc1ccccc1)NC[C@H]1CC[C@H](C(=O)NC2CCc3cc(F)ccc3C2Cc2cccnc2)CC1 (stereo partly specified) |
| 7.52 | – | CC(C)(C)OC(=O)N[C@@H]1CCN(CC(=O)NC2CCc3cc(F)ccc3C2Cc2cccnc2)C1 (stereo partly specified) |
| 7.80 | – | CC(C)(C)OC(=O)NC[C@H]1CC[C@H](C(=O)NC2CCc3cc(F)ccc3C2Cc2cccnc2)CC1 (stereo partly specified) |

| SMILES | pIC50 [1] | Kb [2] [nM] |
| --- | --- | --- |
| O=C(NC[C@H]1CC[C@H](C(=O)NC2CCc3cc(F)ccc3C2Cc2cccnc2)CC1)Oc1ccccc1 (stereo partly specified) | 7.51 | – |
| O=C(CN1CCC(NC(=O)Oc2ccccc2)CC1)NC1CCc2cc(F)ccc2C1Cc1cccnc1 (stereo unspecified) | 7.28 | – |
